For 16 compounds, TGI results are on record in PubChem BioAssay (NCI).

Among the test systems are CAKI-1 renal; HCC-2998 colon; HCT-116 colon; HS 578T breast; IGROV1 ovarian; LOX IMVI melanoma; NCI-H460 lung; SF-539 CNS; BT-549 breast.
Assay in all cases: NCI tumour cell line growth inhibition, 48 h

Molecules are shown by their SMILES.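 Assay format: 96-well plates, 48-hour exposure. TGI: concentration producing complete growth inhibition.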

In the case of `CN1CCN(c2nc3ccccc3nc2C(=O)c2ccc(Cl)cc2)CC1`, the TGI in the experiment with CAKI-1 renal is more than 100 µM; in the experiment with HCC-2998 colon it was 99.7 µM; with HCT-116 colon, more than 100 µM; with HS 578T breast, more than 100 µM; in the experiment on IGROV1 ovarian it was more than 100 µM; in the experiment with LOX IMVI melanoma it was more than 100 µM. For the same compound, the TGI in the experiment with NCI-H460 lung was 80.2 µM; with SF-539 CNS it was more than 100 µM.
Consider `CC(O)c1c2c(cc3c1CC1(C3)Cc3cc4c(c(C(C)O)c3C1)CCC4)CCC2` (stereo not drawn), for which the TGI was 40.2 µM in the experiment with HCC-2998 colon; 24.8 µM in the experiment with HCT-116 colon; 52.8 µM in the experiment on HS 578T breast; 42.3 µM in the experiment with IGROV1 ovarian; 32.8 µM in the experiment on LOX IMVI melanoma; 46.4 µM in the experiment on SF-539 CNS.
For `Clc1ccccc1/C=C/c1nsc(/C=C/c2ccccc2Cl)n1`, the TGI with BT-549 breast, with CAKI-1 renal, with HCT-116 colon, in the experiment on HS 578T breast, in the experiment on IGROV1 ovarian and in the experiment on LOX IMVI melanoma was more than 100 µM each time. In addition, the TGI was 46.4 µM in the experiment on NCI-H460 lung and more than 100 µM with SF-539 CNS.
Turning to `N=C(/C=C/c1ccc(-c2cn3cc(/C=C/C(=N)N4CCCC4)ccc3n2)cc1)N1CCCC1`, the TGI with BT-549 breast, in the experiment with CAKI-1 renal, in the experiment with HCC-2998 colon, with HCT-116 colon, in the experiment on HS 578T breast and in the experiment on IGROV1 ovarian was more than 100 µM each time. Further, the TGI in the experiment with NCI-H460 lung and in the experiment on SF-539 CNS was more than 100 µM in each case.
As to `Cc1ccc(/C=C2\CN(C)CC3C(c4ccc(C)cc4)=C(C#N)C(=O)NC23)cc1` (stereo not drawn), the TGI in the experiment with BT-549 breast, with CAKI-1 renal, with HCC-2998 colon, with HCT-116 colon, with HS 578T breast and in the experiment on IGROV1 ovarian was more than 50 µM in each case. Further, the TGI with LOX IMVI melanoma and in the experiment with NCI-H460 lung was more than 50 µM throughout.
For the compound `CC(C)C1CC=NN1C(=O)OC(C)(C)C` (stereo not drawn), the TGI in the experiment with CAKI-1 renal, with HCC-2998 colon, in the experiment with HCT-116 colon, in the experiment on HS 578T breast, in the experiment on IGROV1 ovarian and with LOX IMVI melanoma was more than 100 µM each time. Moreover, the TGI in the experiment on NCI-H460 lung and in the experiment on SF-539 CNS was more than 100 µM throughout.
For the compound `COc1ncnc2c1cnn2Cc1cn(COCC(O)CO)nn1` (stereo not drawn), the TGI in the experiment on BT-549 breast, with CAKI-1 renal, in the experiment with HCC-2998 colon, in the experiment on HCT-116 colon, in the experiment on IGROV1 ovarian and with LOX IMVI melanoma was more than 100 µM in each case. The TGI in the experiment with SF-539 CNS is more than 100 µM.
As to `Cc1c2c(c(C)n1-c1ccccc1)C(=O)N(CCSC(=N)N)C2=O`, the TGI in the experiment with BT-549 breast, in the experiment with CAKI-1 renal, in the experiment on HCC-2998 colon, in the experiment with HCT-116 colon, in the experiment on HS 578T breast and in the experiment with IGROV1 ovarian was more than 100 µM throughout. Also, the TGI in the experiment with NCI-H460 lung and with SF-539 CNS was more than 100 µM each time.
As for `COC(=O)c1ccc2c(c1)CC1(C2)Cc2cc3c(c(C(=O)OC)c2C1)CCCC3` (stereo not drawn), the TGI in the experiment with CAKI-1 renal, in the experiment with HCC-2998 colon, with HCT-116 colon, with HS 578T breast, in the experiment with IGROV1 ovarian and in the experiment with LOX IMVI melanoma was more than 100 µM each time. Also, the TGI in the experiment on NCI-H460 lung and in the experiment on SF-539 CNS was more than 100 µM each time.
On to `NS(=O)(=O)c1ccc(NC(=O)c2cc([N+](=O)[O-])cc([N+](=O)[O-])c2)cc1`, for which the TGI in the experiment with BT-549 breast was more than 100 µM; in the experiment with CAKI-1 renal it was more than 100 µM; with HCT-116 colon it was more than 100 µM; with HS 578T breast it was more than 100 µM; with IGROV1 ovarian it was 79.9 µM; in the experiment on LOX IMVI melanoma it was 78.1 µM. In addition, the TGI in the experiment with NCI-H460 lung and with SF-539 CNS was more than 100 µM in each case.
As to `CSCCC(NCc1c(O)ccc2ccc(=O)oc12)C(=O)O` (stereo not drawn), the TGI in the experiment with CAKI-1 renal, in the experiment on HCC-2998 colon, in the experiment with HCT-116 colon, with HS 578T breast, in the experiment with IGROV1 ovarian and with LOX IMVI melanoma was more than 100 µM throughout. The TGI in the experiment on NCI-H460 lung and in the experiment on SF-539 CNS was more than 100 µM throughout.
Regarding `O=C(O)C(Cc1ccc2c(c1)CCC2)(Cc1ccc2c(c1)CCC2)C(=O)O`, the TGI with BT-549 breast, in the experiment on HCC-2998 colon, in the experiment on HCT-116 colon, with HS 578T breast, in the experiment with IGROV1 ovarian and in the experiment with LOX IMVI melanoma was more than 100 µM in each case. For the same compound, the TGI in the experiment on NCI-H460 lung and with SF-539 CNS was more than 100 µM each time.
Regarding `CC(CC(=O)CO[C@H]1[C@H](O)[C@@H](O)[C@@H](O)[C@@H]2NC(=O)c3c(cc4c(c3O)OCO4)[C@H]21)OC1OC(CO)C(O)C(O)C1O` (stereo partly drawn), the TGI with BT-549 breast was 3.76 µM; in the experiment on CAKI-1 renal, more than 100 µM; in the experiment with HCC-2998 colon it was 0.633 µM; in the experiment on HCT-116 colon it was 1.67 µM; in the experiment on HS 578T breast, 3.76 µM; in the experiment with IGROV1 ovarian, 6.82 µM. Also, the values for the TGI in the experiment with LOX IMVI melanoma and in the experiment on SF-539 CNS were 1.32 µM and 1.86 µM, respectively.
Regarding `COC(=O)[C@@H]1C=C[C@@H](C#N)n2c(=O)n(-c3ccccc3)c(=O)n21`, the TGI with BT-549 breast, in the experiment on CAKI-1 renal, in the experiment with HCC-2998 colon, in the experiment with HCT-116 colon, in the experiment with HS 578T breast and in the experiment on IGROV1 ovarian was more than 100 µM throughout. Moreover, the TGI in the experiment with LOX IMVI melanoma worked out at 48.4 µM; with SF-539 CNS it was 65.3 µM.
In the case of `CC(=O)Oc1c(C)cc(-c2cc(C)c(OC(C)=O)c(C)c2)cc1C`, the TGI in the experiment on BT-549 breast is more than 100 µM; in the experiment with CAKI-1 renal, more than 100 µM; in the experiment on HCT-116 colon, more than 100 µM; with HS 578T breast, 60.1 µM; in the experiment with IGROV1 ovarian, more than 100 µM; in the experiment with LOX IMVI melanoma it was more than 100 µM. Moreover, the TGI with NCI-H460 lung is more than 100 µM.
Take `CC12CC3CC/C(=N\O)C(C1)C3(N1CCOCC1)C/C2=N/O` (stereo not drawn): the TGI in the experiment on CAKI-1 renal, with HCC-2998 colon, in the experiment with HCT-116 colon, in the experiment on IGROV1 ovarian, in the experiment with LOX IMVI melanoma and with NCI-H460 lung was more than 100 µM throughout. The compound also returned a TGI in the experiment on SF-539 CNS of more than 100 µM.
